Results: US9505798B2, “Steroid compounds as RORyt modulators and uses thereof” (New York University, priority 2010, dated 2016)

How the values were obtained:
[1] = molecular target: T1, mouse RORγt (Mus musculus, UniProt P51450); experiment: Drosophila S2 cell RORγt luciferase reporter; type: cell-based; conditions: for effect on RORγ transcriptional activity: S2 reporter system
T1 construct: mouse RORγt (amino acids 79 to the carboxyl terminal end); expressed in transfected cells
T1 sequence (P51450 79-495 isoform P51450-2): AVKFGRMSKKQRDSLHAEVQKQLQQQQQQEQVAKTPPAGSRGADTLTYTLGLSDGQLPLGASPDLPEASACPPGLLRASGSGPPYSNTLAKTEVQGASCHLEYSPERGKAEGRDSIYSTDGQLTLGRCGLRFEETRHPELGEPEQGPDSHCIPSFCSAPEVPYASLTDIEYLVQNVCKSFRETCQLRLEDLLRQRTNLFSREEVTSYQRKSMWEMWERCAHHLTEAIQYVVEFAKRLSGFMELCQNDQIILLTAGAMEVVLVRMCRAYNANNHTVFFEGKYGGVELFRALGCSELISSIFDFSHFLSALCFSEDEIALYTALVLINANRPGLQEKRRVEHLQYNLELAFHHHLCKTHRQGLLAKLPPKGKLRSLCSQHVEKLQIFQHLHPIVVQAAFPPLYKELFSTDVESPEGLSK
From the text: The Drosophila S2 cell line was originally purchased from Invitrogen and was maintained in Schneider's medium supplemented with 10% heat-inactivated bovine fetal calf serum and antibiotics (Invitrogen). […] The resulting chimeric gene was subcloned into the copper inducible pMT/V5-His A vector (Invitrogen). […] Coding sequences for firefly luciferase (Promega) were PCR amplified and subcloned into pUAST vector containing Gal4 binding enhancer sequences. Renilla luciferase construct under the polIII promoter was obtained from Dr. Dasgupta's laboratory (NYU medical center). In order to generate stable cell lines, cells were co-transfected with pMT-G4 DBD-RORγt, pMT-G4 DBD-RORα, pMT-G4 DBD-DHR3, or pMT-G4 DBDVP16 and pHygro plasmids (Invitrogen) and screened for resistant colonies in the presence of hygromycin (0.3 mg/mL). […] Using similar methods, stable clones with genomic integration of the luciferase reporters and other reporters were generated such as pMT-RORα_luc, pMT-DHR3_Luc, or pMT-VP16_luc.
(§1) The following representative compounds are tested for their RORγt inhibitory activity and toxicity.
Promega Dual-Glo system is widely used for HTS as the luciferase substrates. Cell culture medium was reduced to the final volume of 10 μl or less and 10 μl of Dual-glo and 10 μl of Stop-glo luciferase substrates were added in a sequencial manner (Promega). Firefly and Renilla luciferase activity was determined by measuring luminescence signals using an automated 384-well plate reader equipped with multiple stack units (such as the Analyst GT or Envision plate readers).
10,000 Drosophila stable S2 cells with genomic integration of the Cu2+-inducible G4 DBD-mouse RORγ construct were transfected with 5 ng of pUASTfirefly luciferase and 7 ng of Pol III-Renilla luciferase and dispensed into white bottom-tissue culture 384-well plates (Corning). […] The following morning, Stop-glo luciferase substrates (Promega) were used to measure luciferase activity.
The Drosophila S2 cell line was originally purchased from Invitrogen and was maintained in Schneider's Drosophila medium supplemented with 10% heat-inactivated bovine fetal calf serum and 1× antibiotic-antimycotic solution (Invitrogen). […] The resulting chimeric gene was subcloned into the copper inducible pMT/V5-His A vector (Invitrogen) and into the constitutive pAc vector. […] Coding sequences for firefly luciferase (Promega) were PCR amplified and subcloned into the pUAST vector containing five Gal4 binding enhancer sequences. The Renilla luciferase construct under a pol III promoter and the pAc vector were obtained from R. Dasgupta (NYU School of Medicine). To generate cell lines stably expressing various chimeric proteins upon copper addition, S2 cells were co-transfected with pMT plasmids encoding individual G4 DBD chimeric constructs and the pCoHygro plasmid (Invitrogen), before screening for resistant colonies in the presence of hygromycin (0.3 mg/mL). […] The human androgen receptor (hAR) expression plasmid pMK33-hAR and its reporter TAT3-Luc were obtained from M. Garabedian (NYU School of Medicine). […] R1881 (10 nM) and Dafachronic acid (10 μM) were used as ligands for hAR and Daf12. Upon treatment of cells with copper, in 384 well plates, there was specific increase in firefly luciferase activity versus normalized Renilla luciferase activity for all cell lines described above, validating the method for high-throughput screen.
Transfections of firefly and Renilla reporter constructs were performed using the Effectene kit from Qiagen according to the manufacturer's protocol with some modifications.

[2] = test system: Na+/K+-ATPase; conditions: compared with digoxin; cited from earlier work
[3] = test system: human embryonic kidney 293t cell lines; experiment: Toxicity on human embryonic kidney 293T cells
Method: as §1

[4] = test system: human Th17 cell differentiation; experiment: Human Th17 cell differentiation from naive cord blood CD4+ T cells; type: cell-based
Method: (§2) GFP expressing cells were gated for analysis. DMSO, Dig(dhd) (40 μM) or Dig(sal) (10 μM) was added 6-8 h after viral transduction. c, Flow cytometry of the production of IL-17a and IFN-γ by human naive cord blood T cells cultured for six days in the presence of IL-2, IL-23, and IL-1β, with various concentrations of TGF-β. DMSO, Dig(dhd), or Dig(sal) at indicated concentrations (μM) was added 16 h after cytokine addition.
(§3) Blood samples were obtained from the New York Blood Center. Mononuclear cells were prepared from buffy coats from healthy adult donors or from cord blood, using FicollPAQUE gradients. CD4^+ T cells were magnetically selected (autoMACS, Miltenyi). Adult memory CD4^+ T cell subsets were further purified as CD3^+CD4^+CD25^− CD45RO^+CCR6^+CD161^+ by cell sorting on a FACSAria (BD). Naive CD4^+ T cells were isolated from cord blood as CD3^+CD4^+CD45RA^+HLA-DR^−CD25^−DAPI^−. Memory cells were activated with anti-CD3/CD28 coated beads (1 bead/cell) in T cell media (see above) supplemented with 100 U/mL IL-2 (Peprotech), 10 ng/mL IL-1b and 10 ng/mL IL-23 (eBioscience). Naive cells were activated with anti-CD3/CD28 beads and cultured with the same cytokines, and TGF-b (0, 0.1, 1, or, 10 ng/mL) (Peprotech), in XVIVO-20 (Lonza) media. […] Naive CD4^+ T cells, cultured in XVIVO-20 media supplemented 100 U/mL IL-2 (Peprotech), were transduced with RORad-IRES-GFP or RORγt-IRES-GFP on day 1 and analyzed on day 6. GFP expressing cells were gated for analysis. DMSO or compounds were added 6-8 hours after the viral transduction.
(§4) Blood samples were obtained from the New York Blood Center. Mononuclear cells were prepared from buffy coats from healthy adult donors or from cord blood, using FicollPAQUE gradients. CD4^+ T cells were magnetically selected (autoMACS, Miltenyi). Adult memory CD4+ T cell subsets were further purified as CD3^+CD4^+CD25^−CD45RO^+CCR6^+CD161^+ by cell sorting on a FACSAria (BD). Naive CD4^+ T cells were isolated from cord blood as CD3^+CD4^+CD45RA^+HLA^−DR^−CD25^−DAPI^−. Memory cells were activated with anti-CD3/CD28 coated beads (1 bead/cell) in T cell media (see above) supplemented with 100 U/mL IL-2 (Peprotech), 10 ng/mL IL-1β and 10 ng/mL IL-23 (eBioscience). Naive cells were activated with anti-CD3/CD28 beads and cultured with the same cytokines, and TGF-β (0, 0.1, 1, or, 10 ng/mL) (Peprotech), in XVIVO-20 (Lonza) media. […] Naive CD4+ T cells, cultured in XVIVO-20 media supplemented with 100 U/mL IL-2 (Peprotech), were transduced with RORαd-IRES-GFP or RORγt-IRES-GFP on day 1 and analyzed on day 6. GFP expressing cells were gated for analysis. DMSO or compounds were added 6-8 hours after the viral transduction.

[5] = Precipitation noted in Table 2; type: physicochemical
[6] = molecular target: T2, human RORγt (Homo sapiens, UniProt P51449); experiment: IL-17a induction in human CD4+ T cells transduced with RORαd, RORβ or RORγt; type: cell-based; conditions: 10 μM, FIG. 3b
T2 construct: expressed in transfected cells; host or cells: human CD4+ T cells (cord blood or adult blood), lentiviral HDV-IRES-GFP/HSA vectors
T2 sequence (P51449 1-497 isoform P51449-2): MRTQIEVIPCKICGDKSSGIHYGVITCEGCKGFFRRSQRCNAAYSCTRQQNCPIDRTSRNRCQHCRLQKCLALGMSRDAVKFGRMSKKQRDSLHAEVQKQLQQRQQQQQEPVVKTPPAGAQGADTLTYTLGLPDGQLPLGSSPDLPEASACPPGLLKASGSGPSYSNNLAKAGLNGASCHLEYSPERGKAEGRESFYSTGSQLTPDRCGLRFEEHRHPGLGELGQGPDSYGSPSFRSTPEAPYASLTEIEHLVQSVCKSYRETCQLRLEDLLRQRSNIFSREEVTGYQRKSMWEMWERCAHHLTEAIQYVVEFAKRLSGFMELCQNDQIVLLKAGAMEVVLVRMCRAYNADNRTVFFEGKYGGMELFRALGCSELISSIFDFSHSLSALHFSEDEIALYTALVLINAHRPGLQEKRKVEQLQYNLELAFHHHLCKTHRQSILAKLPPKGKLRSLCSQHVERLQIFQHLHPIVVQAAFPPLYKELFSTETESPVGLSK
Method: as §2, §3
Blood samples were obtained from the New York Blood Center. Mononuclear cells were prepared from buffy coats from healthy adult donors or from cord blood, using FicollPAQUE gradients. CD4^+ T cells were magnetically selected (autoMACS, Miltenyi). Adult memory CD4+ T cell subsets were further purified as CD3^+CD4^+CD25^−CD45RO^+CCR6^+CD161^+ by cell sorting on a FACSAria (BD). […] Naive CD4+ T cells, cultured in XVIVO-20 media supplemented with 100 U/mL IL-2 (Peprotech), were transduced with RORαd-IRES-GFP or RORγt-IRES-GFP on day 1 and analyzed on day 6. […]

[7] = test system: IL-17a production in human CD4+ T cells; experiment: Human cord blood CD4+ T cells expressing murine ATP1a1, Th17 conditions; type: cell-based; conditions: murine Na+/K+-ATPase α1 expressed, 10 μM
Method: as §4

Row | SMILES | effect on RORγ transcriptional activity [1] | Na+/K+-ATPase inhibition / binding affinity [2] | cytotoxic concentration on human cells [3] [µM] | IC50 [1] [nM] | IFN-γ expression in T cells ([4]; FIG. 3c) | Th17 cell differentiation ([4]; FIG. 3c) | inhibition at 10 µM ([4]; Homo sapiens, CD4+ T, at 10 uM) [%] | Note [5] | RORγt-mediated IL-17a induction (versus RORαd) [6] | IL-17a expression [7]
1 | CC1OC(OC2C(O)CC(OC3C(O)CC(OC4CCC5(C)C(CCC6C5CC(O)C5(C)C(C7COC(=O)C7)CCC65O)C4)OC3C)OC2C)CC(O)C1O (centres unmarked) [20,22-Dihydrodigoxin] | inhibited | much lower binding affinity than that of digoxin | 2.5 |  |  |  |  |  |  | 
2 | CC1OC(OC2C(O)CC(OC3C(O)CC(OC4CCC5(C)C(CCC6C5CC(O)C5(C)C(C7=CC(=O)OC7=Cc7ccccc7O)CCC65O)C4)OC3C)OC2C)CC(O)C1O (centres unmarked) [Compound 15, Digoxin-21-salicylidene] |  |  |  | < 1000 | reciprocal increases | blocked | ~70 | precipitate at high | selectively suppressed | 
3 | CC(=O)O[C@H]1C[C@H](O[C@H]2[C@@H](O)C[C@H](O[C@H]3[C@@H](O)C[C@H](O[C@H]4CC[C@@]5(C)[C@H](CC[C@@H]6[C@@H]5C[C@@H](O)[C@]5(C)[C@@H](C7=CC(=O)OC7)CC[C@]65O)C4)O[C@@H]3C)O[C@@H]2C)O[C@H](C)[C@H]1O[C@@H]1O[C@H](CO)[C@@H](O)[C@H](O)[C@H]1O [lanatoside C, Lanatoside C] | no significant effect |  |  |  |  |  |  |  |  | no effect
